Like-named read-outs stand apart in the source and are kept apart here.
How the values were obtained:
[1] = target: full length recombinant Pim-1 (Homo sapiens (Human), UniProt P11309); experiment: Pim enzyme assay (HTRF, phosphorylation of biotinylated-BAD (S112) peptide), Pim-1; assay type: biochemical; settings: Pim-1 enzyme assay; read-out: Pim_1_IC50
[2] = target: full length recombinant Pim-3 (Homo sapiens (Human), UniProt Q86V86); experiment: Pim enzyme assay (HTRF, phosphorylation of biotinylated-BAD (S112) peptide), Pim-3; assay type: biochemical; settings: read-out: Pim3 IC50
Outline: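 Full-length recombinant Pim-3 phosphorylated biotinylated BAD (S112) peptide in 60 mM Hepes pH 7.0, 0.05% BSA, 2 mM DTT for 1 h 30 min at 22 °C. After EDTA stop, HTRF was read with Eu anti-phospho-BAD and streptavidin-APC. IC50 came from 4-parameter logistic fit of percent-of-control values.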

[3] = tested on: Pim-1 stably transfected U2OS human osteogenic sarcoma line; experiment: Pim cell assay U2OS (phospho-BAD normalized against total BAD), Pim-1 transfected; assay type: cell-based
Protocol: (§1) The cell lines used in the assay were generated by the stable transfection of either Pim-1 or Pim-2 into the U2OS human osteogenic sarcoma line. The assay for determination of the Pim activity in the engineered U2OS cell lines measures levels of phospho-BAD normalized against total BAD protein levels. It was conducted as follows:
(§2) The adherent cells were dissociated from the flasks using non-enzymatic cell dissociation solution (Sigma #C5914). […] The cells were then incubated overnight at 37° C., 5% CO2.
(§3) In addition to the 10-point dosing curve of the test compound, DMSO alone was run as the high control.
(§4) This dilution in DMSO was then diluted again into cell growth medium. Aliquots (12 μL) of the compound diluted in growth medium were then transferred to the appropriate wells of the 96-well plates containing cells to a final DMSO concentration of 0.3%. The cell plates were then incubated with compound for 29 min at 37° C., 5% CO2.
(§5) The cell plates containing lysis buffer were then immediately stored at −70° C.
(§6) These prepared lysates were then assayed for phospho and total BAD according to the manufacturer's protocols (Meso Scale Diagnostics, Cat#K15103C-3 & #K15103D-3). The plates were read on the MSD Sector Imager 6000, and results were calculated according to the assay protocols ((% Phosphoprotein=((2×Phospho signal)/(Phospho signal+Total signal))×100)).

[4] = tested on: Pim-2 stably transfected U2OS human osteogenic sarcoma line; experiment: Pim cell assay U2OS (phospho-BAD normalized against total BAD), Pim-2 transfected; assay type: cell-based; settings: U2OS cells, Pim-2 transfected, read-out: U2OS Pim2_Cell_IC50
Protocol: as §1, §2, §3, §4, §5, §6

[5] = target: full length recombinant Pim-2 (Homo sapiens (Human), UniProt Q9P1W9); experiment: Pim enzyme assay (HTRF, phosphorylation of biotinylated-BAD (S112) peptide), Pim-2; assay type: biochemical; settings: Pim-2 enzyme assay; read-out: Pim2_IC50
[6] = Homo sapiens, U2OS, read-out: U2OS Pim1_Cell_IC50, U2OS cells, Pim-1 transfected
[7] = Homo sapiens, U2OS, read-out: U2OS Pim1_Cell_IC50

Sequence of full length recombinant Pim-1 (P11309 whole entry): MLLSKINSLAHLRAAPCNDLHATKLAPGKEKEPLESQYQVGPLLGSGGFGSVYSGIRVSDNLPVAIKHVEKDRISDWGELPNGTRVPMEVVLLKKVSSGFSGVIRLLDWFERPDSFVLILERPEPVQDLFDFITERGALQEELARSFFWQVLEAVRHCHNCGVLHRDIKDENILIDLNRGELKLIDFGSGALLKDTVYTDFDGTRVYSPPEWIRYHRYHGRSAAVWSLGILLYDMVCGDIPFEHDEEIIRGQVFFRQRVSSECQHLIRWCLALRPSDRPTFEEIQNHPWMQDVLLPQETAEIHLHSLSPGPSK
Sequence of full length recombinant Pim-2 (Q9P1W9 whole entry): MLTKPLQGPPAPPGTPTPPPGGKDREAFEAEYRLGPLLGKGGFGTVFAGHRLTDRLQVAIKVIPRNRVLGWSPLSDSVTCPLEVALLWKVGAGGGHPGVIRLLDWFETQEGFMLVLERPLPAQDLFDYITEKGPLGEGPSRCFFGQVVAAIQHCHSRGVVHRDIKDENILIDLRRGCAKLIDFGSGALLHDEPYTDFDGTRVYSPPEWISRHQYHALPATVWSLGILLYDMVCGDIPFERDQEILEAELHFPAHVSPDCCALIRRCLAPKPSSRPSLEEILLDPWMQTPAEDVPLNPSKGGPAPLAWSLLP

| Compound | IC50 [1] | IC50 ([2]; Pim-3 enzyme assay) | IC50 [5] | IC50 [3, 6] | IC50 ([4]; Homo sapiens) | IC50 [2] | IC50 ([3]; Homo sapiens, U2OS cells, Pim-1 transfected, read-out: U2OS Pim1_Cell_IC50) | IC50 ([3]; read-out: U2OS Pim1_Cell_IC50, U2OS cells, Pim-1 transfected) | IC50 [4] | IC50 [3, 7] |
| --- | --- | --- | --- | --- | --- | --- | --- | --- | --- | --- |
| Nc1nnc(-c2ccc3[nH]cc(-c4cncc(N5CCC(F)(F)CC5)n4)c3c2)o1 [Example 2, 5-(3-(6-(4,4-difluoropiperidin-1-yl)pyrazin-2-yl)-1H-indol-5-yl)-1,3,4-oxadiazol-2-amine] | 1.94 nM | 1.08 nM |  | 29.4 nM | 419 nM |  |  |  |  |  |
| c1cc(C2CC2)nc(-c2c[nH]c3ccc(-c4nnc(NC5COC5)o4)cc23)n1 [Example 256, 5-(3-(4-cyclopropyl-2-pyrimidinyl)-1H-indol-5-yl)-N-3-oxetanyl-1,3,4-oxadiazol-2-amine] | 7.69 nM | 1.21 nM |  | 68.1 nM | 734 nM |  |  |  |  |  |
| CC(C)Oc1cccc(-c2c[nH]c3ccc(-c4nnc(N[C@@H]5CCCNC5)s4)cc23)n1 [Example 35, (R)-5-(3-(6-Isopropoxypyridin-2-yl)-1H-indol-5-yl)-N-(piperidin-3-yl)-1,3,4-thiadiazol-2-amine 2,2,2-trifluoroacetate] | 9.23 nM |  |  | 1150 nM | 10900 nM | 1.84 nM |  |  |  |  |
| CC(C)Oc1cccc(-c2c[nH]c3ccc(-c4nnc(NC5CCCNC5)s4)cc23)n1 (centres unmarked) [Example 32, 5-(3-(6-Isopropoxypyridin-2-yl)-1H-indol-5-yl)-N-(piperidin-3-yl)-1,3,4-thiadiazol-2-amine 2,2,2-trifluoroacetate] |  |  |  | 573 nM | 6850 nM | 3.46 nM |  |  |  |  |
| Nc1nnc(-c2ccc3[nH]cc(-c4cccc(OC5CCCC5)n4)c3c2)s1 [Example 163, 5-(3-(6-(cyclopentyloxy)-2-pyridinyl)-1H-indol-5-yl)-1,3,4-thiadiazol-2-amine] | 14.7 nM | 4.58 nM |  |  | 6900 nM |  | 479 nM |  |  |  |
| c1cc(C2CC2)nc(-c2c[nH]c3ccc(-c4nnc(C5CC5)o4)cc23)n1 [Example 43, 2-cyclopropyl-5-(3-(4-cyclopropylpyrimidin-2-yl)-1H-indol-5-yl)-1,3,4-oxadiazole] | 7.58 nM |  | 4.32 nM |  | 3390 nM |  |  |  |  | 247 nM |
| Nc1nnc(-c2ccc3[nH]cc(-c4cccc(OC5CCC5)n4)c3c2)s1 [Example 161, 5-(3-(6-(cyclobutyloxy)-2-pyridinyl)-1H-indol-5-yl)-1,3,4-thiadiazol-2-amine] | 10.9 nM | 2.98 nM |  | 205 nM | 3480 nM |  |  |  |  |  |
| CNc1nnc(-c2ccc3[nH]cc(-c4cccc(OC5CCC5)n4)c3c2)s1 [Example 232, 5-(3-(6-(cyclobutyloxy)-2-pyridinyl)-1H-indol-5-yl)-N-methyl-1,3,4-thiadiazol-2-amine] | 57 nM |  | 104 nM |  | > 31600 nM |  |  |  |  | 1720 nM |

More lines, in order of falling IC50 [1], values ahead:

| IC50 [1] | IC50 ([2]; Pim-3 enzyme assay) | IC50 [5] | Compound | IC50 [3, 6] | IC50 ([4]; Homo sapiens) | IC50 [2] | IC50 ([3]; Homo sapiens, U2OS cells, Pim-1 transfected, read-out: U2OS Pim1_Cell_IC50) | IC50 ([3]; read-out: U2OS Pim1_Cell_IC50, U2OS cells, Pim-1 transfected) | IC50 [4] | IC50 [3, 7] |
| --- | --- | --- | --- | --- | --- | --- | --- | --- | --- | --- |
| 121 nM | 28.9 nM |  | Oc1nnc(-c2ccc3[nH]cc(-c4cccc(N5CCOCC5)n4)c3c2)s1 [Example 29, 5-(3-(6-morpholinopyridin-2-yl)-1H-indol-5-yl)-1,3,4-thiadiazol-2-ol] | 6860 nM | > 31600 nM |  |  |  |  |  |
| 100 nM | 28 nM |  | CNc1nnc(-c2ccc3[nH]cc(-c4csc(-n5cnc(C)c5)n4)c3c2)s1 [Example 233, N-methyl-5-(3-(2-(4-methyl-1H-imidazol-1-yl)-1,3-thiazol-4-yl)-1H-indol-5-yl)-1,3,4-thiadiazol-2-amine] | 1400 nM | > 31600 nM |  |  |  |  |  |
| 16.1 nM |  | 48.9 nM | CC1COCCN1c1nnc(-c2ccc3[nH]cc(-c4cncc(C5CC5)n4)c3c2)o1 (stereo in doubt) [Example 249, 3-(6-cyclopropyl-2-pyrazinyl)-5-(5-((3R)-3-methyl-4-morpholinyl)-1,3,4-oxadiazol-2-yl)-1H-indole] |  |  |  |  | 375 nM | > 31600 nM |  |
| 10.6 nM | 4.97 nM |  | Nc1nnc(-c2ccc3[nH]cc(-c4nccc(-c5ccccc5F)n4)c3c2)o1 [Example 123, 5-(3-(4-(2-fluorophenyl)-2-pyrimidinyl)-1H-indol-5-yl)-1,3,4-oxadiazol-2-amine] | 147 nM | 1350 nM |  |  |  |  |  |

From patent publication US9321756B2, “Azole compounds as PIM inhibitors” (priority 2011, dated 2016)
